In patent publication US5486516A, “Furopyrimidine derivatives” (DowElanco, priority 1993, dated 1996) one finds pest or weed control and mortality data, which are given here for five compounds.

Assay [1] concerns Botrytis cinerea (gray mold). Put plainly: Plant pathology screen (Test 1), gray mold on grape berries. The settings on record: read-out: GRAY MOLD control rating.
Assay [2] relates to Southern corn rootworm (Diabrotica undecimpuctata howardi Barber). Put plainly: Mite/insect screen, corn rootworm. It is filed as in vivo. The settings on record: Diabrotica, soil, read-out: CRW results (percent mortality); for mortality at 12 ppm: CRW rate 12.00 ppm; for mortality at 24 ppm: CRW rate 24.00 ppm. Here is the method:
(§1) The compounds of Examples were tested for miticidal and insecticidal activity in the following mite/insect screen.
(§2) Each test compound was formulated by dissolving the compound in acetone/alcohol (50:50) mixture containing 23 g of "TOXIMUL R" (sulfonate/nonionic emulsifier blend) and 13 g of "TOXIMUL S" (sulfonate/nonionic emulsifier blend) per liter. These mixtures were then diluted with water to give the indicated concentrations.
Activity on Southern corn rootworm (Diabrotica undecimpuctata howardi Barber) was evaluated by adding two ml of tap water, a presoaked corn seed, and 15 g of dry sandy soil to a one ounce plastic container. The soil was treated with 1 mL of test solution containing a predetermined concentration of test compound. After six to 12 hours of drying, five 2-3 instar corn rootworm larvae were added to the individual cups, which were then capped and held at 23° C.
(§3) After standard exposure periods, percent mortality and phytotoxicity were evaluated. […] The following abbreviations are used in Table 3:
CRW refers to corn rootworm

For assay [3], the system named is Pyricularia oryzae (rice blast). Kind of assay: whole plant or invertebrate. The class given is in vivo. The settings on record: foliar, read-out: RICE BLAST control rating.
The test system of assay [4] is southern armyworm (Spodopetra eridania Cramer). Kind of assay: Mite/insect screen, Southern armyworm. It is filed as in vivo. The settings on record: Spodoptera eridania, sprayed leaves, read-out: SAW results (percent mortality); for mortality at 200 ppm: rate 200 ppm; for mortality at 400 ppm: rate 400 ppm. The protocol: as §1, §2
(§4) Twospotted spider mites (Tetranychus urticae Koch) and melon aphids (Aphis gossvpii Glover) were introduced on squash cotyledons and allowed to establish on both leaf surfaces. Other plants in the same treatment pot were left uninfested. The leaves were then sprayed with 5 ml of test solution using a DeVilbiss atomizing sprayer at 10 psi. Both surfaces of the leaves were covered until runoff, and then allowed to dry for one hour. Two uninfested leaves were then excised and placed into a Petri dish containing larval southern armyworm (Spodopetra eridania Cramer).
as §3
SAW refers to Southern armyworm

The subject of assay [5] is Twospotted spider mites (Tetranychus urticae Koch). Kind of assay: Mite/insect screen, twospotted spider mites. The class given is in vivo. The settings on record: Tetranychus urticae, sprayed leaves, read-out: SM results (percent mortality); for mortality at 200 ppm: rate 200 ppm; for mortality at 400 ppm: rate 400 ppm. The protocol:
as §1, §2, §4, §3
SM refers to twospotted spider mites

In assay [6] the test system is Erysiphe graminis tritici (powdery mildew). Put plainly: Plant pathology screen (Test 1), powdery mildew on wheat. The settings on record: Blumeria graminis, in Triticum aestivum, foliar, read-out: POWD MDEW control rating.
Assay [7] relates to melon aphids (Aphis gossvpii Glover). Put plainly: Mite/insect screen, melon aphids. It is filed as in vivo. Particulars: Aphis, sprayed leaves, read-out: MA results (percent mortality); for mortality at 200 ppm: rate 200 ppm; for mortality at 400 ppm: rate 400 ppm. Here is the method: as §1, §2, §4, §3
MA refers to melon aphids.

For assay [8], the system named is Pseudoperonospora cubensis (downy mildew). Kind of assay: Plant pathology screen (Test 1), downy mildew on squash. Particulars: foliar, read-out: DOWN MDEW control rating.
Assay [9] concerns Puccinia recondita tritici (leaf rust). Kind of assay: Plant pathology screen (Test 1), leaf rust on wheat. The settings on record: in Triticum aestivum, foliar, read-out: LEAF RUST control rating.

The structures appear in SMILES notation.

The term mortality denotes the percentage killed. In the case of `CCOc1ccc(CCNc2ncnc3oc(C)c(C)c23)cc1` [Example 3, 5,6-dimethyl-N-[2-(4-ethoxyphenyl)ethyl]furo[2,3-d]pyrimidin-4-amine], the pest or weed control at 400 µg/mL in assay [1] lay within 0 to 19%; in [3], 20 to 89%; in assay [6], 0 to 19%; in [8], 20 to 89%; in assay [9] it was 20 to 89%. Moreover, the mortality at 12 ppm in [2] was 0%. In assay [2], the mortality at 24 ppm is 0%. In addition, the mortality at 200 ppm in assay [4] was determined as 30%; in assay [5], 0%; in [7], 0%. Moreover, the mortality at 400 ppm in assay [4], in [5] and in [7] was 0% throughout.

With `COc1ccc(CCNc2ncnc3oc(C)cc23)cc1` [Example 4, N-(2-(4-methoxyphenyl)ethyl]-6-methylfuro(2,3-d]pyrimidin-4-amine], the pest or weed control at 400 µg/mL is 0 to 19% in [1]; 20 to 89% in assay [3]; 0 to 19% in [6]; 0 to 19% in assay [8]; 90 to 100% in assay [9]. The mortality at 24 ppm in assay [2] came to 0%. Besides, the mortality at 400 ppm in [4], in assay [5] and in assay [7] was 0% in each case.

With `Cc1cc2c(Oc3ccc(F)cc3)ncnc2o1` [Example 5, 6-methyl-4-(4-fluorophenoxy)furo[2,3-d]pyrimidine], the pest or weed control at 400 µg/mL in assay [1] fell in the range of 0 to 19%; in assay [3] it was 0 to 19%; in assay [6], 20 to 89%; in assay [8], 0 to 19%; in assay [9], 90 to 100%. In assay [2], the mortality at 12 ppm amounted to 0%. Moreover, the mortality at 24 ppm in assay [2] worked out at 0%. Moreover, the mortality at 200 ppm in assay [4], in assay [5] and in [7] was 0% each time. The mortality at 400 ppm in assay [4], in assay [5] and in [7] was 0% throughout.

Turning to `Cc1cc2c(NCCc3ccc(Cl)cc3)ncnc2o1` [Example 6, 6-methyl-N-[2-(4-chlorophenyl)ethyl]furo(2,3-d]pyrimidin-4-amine], the pest or weed control at 400 µg/mL in assay [1], in assay [3], in assay [6], in assay [8] and in assay [9] was 0 to 19% each time. Besides, the mortality at 12 ppm in assay [2] was determined as 0%. The mortality at 24 ppm in [2] was determined as 0%. The mortality at 200 ppm in assay [4], in assay [5] and in assay [7] was 0% in each case. In addition, the mortality at 400 ppm in assay [4], in [5] and in [7] was 0% in each case.

Consider `Cc1cc2c(OCCc3ccc(-c4ccccc4)cc3)ncnc2o1` [Example 7, 4-[2-(1,1'-biphenyl)-4-ylethoxy]6-methylfuro[2,3-d]pyrimidine], for which the pest or weed control at 400 µg/mL lay within 0 to 19% in assay [1]; 20 to 89% in assay [3]; 0 to 19% in [6]; 20 to 89% in assay [8]; 0 to 19% in [9]. In addition, the mortality at 12 ppm in [2] was found to be 0%. In addition, the mortality at 24 ppm in assay [2] was 0%. The mortality at 200 ppm is 0% in assay [4], 30% in assay [5] and 100% in [7]. For the same compound, the mortality at 400 ppm in [4], in assay [5] and in assay [7] was 0% in each case.
